The values that follow are results of earlier work, collected in patent US20130039995A1, “DERMATOLOGICAL COMPOSITIONS COMPRISING AT LEAST ONE REINOID COMPOUND, AN ANTI-IRRITANT COMPOUND AND BENZOYL PEROXIDE” (Galderma Research & Development, priority 2007, published 2013).

Molecules are shown by their SMILES.

Turning to `O=C(OOC(=O)c1ccccc1)c1ccccc1` [benzoyl peroxide], the “degradation of benzoyl peroxide in solution” value (in solution in ethanol, propylene glycol and mixtures of PEG 400 and water, depends on type of solvent and its concentration) is “degrades more or less rapidly”. Besides, under “in suspension (disperse form) in water and in propylene glycol, after 90 days of storage”, the “degradation of benzoyl peroxide in suspension on storage” value is listed as “not degraded”.
